Laboratory results published in patent US20130338032A1, “ASSAY FOR DETERMINING EPIGENETIC PROFILES OF MARKERS OF FRAGILE X ALLELES” (Murdoch Childrens Research Institute, priority 2009, published 2013).

Columns and labels:
Assay type in all cases: cell-based, human
FMR1 mRNA = FMR1 mRNA (real-time PCR) in lymphoblast cell lines treated with 5-aza; settings: 5-aza 0, 1, 10, 100 μM, 3 days
Procedure: FIG. 1B through J is a graphical representation of the expression of the FMR1 and FRR4 mRNA and FREE1 methylation in lymphoblast cultures with selectively depleted DNMTI. Cell lines from (B, C, D) a HC cell line (30 CGGs), (E, F, G) a PM cell line (103 CGGs) and (H, I, J) a FM cell line from an FXS individual (490 CGGs) were cultured for 3 days in standard RPMI medium/10% v/v fetal bovine serum treated with different doses of 5-aza-deoxycytidine, in triplicate wells, with half of the cells from each well taken for DNA methylation analysis, and the other half for mRNA analyses. FREE1 methylation for each sample was examined from duplicate bisulfite reactions, with single PCR products made from each conversion. The 0.1 methylation output ratio cutoff was not used for this experiment due to an increased number of technical replicates, with values expressed as means of six technical replicates per condition. Methylation and mRNA levels were assessed in the same wells using MALDI-TOF MS and real-time PCR, respectively. The error bars represent standard error (n=3 to 6). […]
(§1) Lymphoblast cell lines were established by Epstein-Barr virus (EBV) transformation from peripheral blood of individuals with: 30, 170 and 490 repeats. […] The cell-viability counts and cell composition were determined by trypan blue exclusion, using a hemocytometer. […]

FREE1 = FREE1 methylation (MALDI-TOF MS) in lymphoblast cell lines treated with 5-aza
Procedure: (§2) FIG. 1B through J is a graphical representation of the expression of the FMR1 and FRR4 mRNA and FREE1 methylation in lymphoblast cultures with selectively depleted DNMTI. Cell lines from (B, C, D) a HC cell line (30 CGGs), (E, F, G) a PM cell line (103 CGGs) and (H, I, J) a FM cell line from an FXS individual (490 CGGs) were cultured for 3 days in standard RPMI medium/10% v/v fetal bovine serum treated with different doses of 5-aza-deoxycytidine, in triplicate wells, with half of the cells from each well taken for DNA methylation analysis, and the other half for mRNA analyses. FREE1 methylation for each sample was examined from duplicate bisulfite reactions, with single PCR products made from each conversion. The 0.1 methylation output ratio cutoff was not used for this experiment due to an increased number of technical replicates, with values expressed as means of six technical replicates per condition. Methylation and mRNA levels were assessed in the same wells using MALDI-TOF MS and real-time PCR, respectively. The error bars represent standard error (n=3 to 6). All conditions were compared to 0 μM 5-aza control: ***-p<0.001; **-p<0.05.
Lymphoblast cell lines were established by Epstein-Barr virus (EBV) transformation from peripheral blood of individuals with: 30, 170 and 490 repeats. The cell lines were treated with 5 aza based on a previously described protocol (Pietrobono et al, 2002, supra). Briefly, A 10 mM stock solution of 5-aza (Sigma-Aldrich) was initially prepared in sterile water. The cell-viability counts and cell composition were determined by trypan blue exclusion, using a hemocytometer. Cells were then resuspended at a density of […] in RPMI medium (Sigma St Luis, Mo., USA)/10% v/v Fetal bovine serum (CSL) at 37° C., 5% v/v CO2, supplemented with of 5-aza stock and thoroughly resuspended. The cells were cultured in triplicate wells for each of the four final 5-Aza concentrations of: 0, 1, 10 and 100 μM. […]

FMR4/ASFMR1 mRNA = FMR4/ASFMR1 mRNA (real-time PCR) in lymphoblast cell lines treated with 5-aza
Procedure: as §2, §1
Total RNA was extracted and purified using the Rneasy extraction kit, as per manufacturer's instructions (Qiagen Inc., Hilden, Germany). RNA concentrations were measured in triplicate using a NanoDrop ND-1000 Spectrophotometer, with purity being determined by the A260/A280 ratio using the expected values between 1.8 and 2. Total RNA quality and the degree of DNA contamination was also assessed using capillary electrophoresis Standard Sens Kit (Bio-rad), which involved descriptive comparison of chromatographic features based on previous publications using this system (Fleige and Pfaffl, Mol Aspects Med 27(2-3):126-139, 2006). […]

[1] = GZ and PM cell lines, 5-aza 0, 1, 10, 100 μM, 3 days
[2] = cell lines for FM carriers affected with FXS, 5-aza 0, 1, 10, 100 μM, 3 days
[3] = cell lines from carriers of CGG alleles ranging from normal size to FM, 5-Aza treatment

## Nc1ncn([C@H]2C[C@H](O)[C@@H](CO)O2)c(=O)n1 [5-aza, 5-aza-2′-deoxycytidine]
FMR1 mRNA; GZ and PM cell lines
  FMR1 mRNA levels: increase
FMR1 mRNA; cell lines for FM carriers affected with FXS
  mRNA levels of FMR1: increase in mRNA levels
FREE1; [1]
  FREE1 methylation: further demethylation of FREE1
FREE1; [2]
  FREE1 methylation: demethylation of FREE1
FREE1; [3]
  FREE1 methylation: de-methylation of the FREE1
FMR4/ASFMR1 mRNA; [1]
  ASFMR1/FMR4 mRNA levels: increase
FMR4/ASFMR1 mRNA; [2]
  mRNA levels of ASFMR1/FMR4: increase in mRNA levels
FMR4/ASFMR1 mRNA; [3]
  FMR4/ASFMR1 transcription within the FREE1: increase FMR4/ASFMR1 transcription
